Data on eight molecules can be found in US10562922B2, “Silicon based cyclic compounds and pharmaceutical compositions for treating malaria and toxoplasmosis” (Council of Scientific and Industrial Research, priority 2016, dated 2020).

“And” between values parts separate entries of the source, which are not always exact repeats. Equal values may be shown once. Read-outs that look alike come from different tables or passages of the source.

One test deals with T. gondii. The experiment in a line: Anti-toxoplasma screening (TgLuc+ luciferase growth assay in HFF host cells). It is filed as cell-based, Toxoplasma gondii. The source says:
b) Anti-toxoplasma Screening:
For screening bioactivity of test molecules against T. gondii, a transgenic line of the parasite (TgLuc+) expressing the luciferase gene is used [Edwin Kamau, Tracy Meehan, Mark D. Lavine, Gustavo Arrizabalaga, Gabriela Mustata Wilson and Jon Boyle. A Novel Benzodioxole-Containing Inhibitor of Toxoplasmagondii Growth Alters the Parasite Cell Cycle. Antimicrob Agents Chemother. 2011, 55(12): 5438-5451]. The parental parasite used to generate the TgLuc+ strain is aType I (RH) virulent strain (ATCC reference 50174D), which can also be used for in vivo studies in mice, if needed. The tachyzoite stage of the parasites are routinely cultured in the laboratory using standard protocols [Roos D S, Donald R G, Morrissette N S, Moulton A L. Molecular tools for genetic dissection of the protozoan parasite Toxoplasma gondii. Methods Cell Biol. 1994, 45:27-63]. In brief, a confluent monolayer of Human Foreskin Fibroblast (HFF; ATCC reference SCRS-1041) cells in culture are used as the host cells for infection with tachyzoitestage T. gondii. The culture media used to grow parasites is standard complete DMEM (Gibco BRL, USA) containing glucose (5.5 mM), glutamine (2 mM), Hepes (25 mM) and 1% dialyzed bovine fetal calf serum (Gibco BRL, USA). For bioactivity assays, the HFF cells are grown in 96 well plates and each well is infected with 1×10^4TgLuc+parasitesin the presence of 10 μM test molecules (in primary screens) in a total volume of 200 μL. After 2 days of incubation and growth in a 37° C. incubator maintaining 5% CO2, the 96 well plates are processed for luminescence measurements using the reagents in the luciferase assay kit (Promega, USA). The results are corrected for background (uninfected HFF cultures), and normalized against both positive (untreated parasite cultures) and negative (standard drug treated parasite cultures) to identify those molecules with % inhibition values >80% for further dose analysis and IC50 determination using a dilution series ranging from 10 μM to 1 nM. Data from the preliminary screen (@ 10 μM only) is shown in Table-1 and dose response experiments are underway.

Test [1] deals with Plasmodium falciparum (3D7). Nature of the test: Anti-malarial screening (SybrGreen parasite growth assay). Type of test: cell-based. Particulars: for inhibition at 10 µM: read-out: % inhibition (P. falciparum). As for the experimental part: a) Anti-malarial Screening:
Plasmodium falciparum (3D7; Malaria Research and Reference Reagent Resource Center ID NO: MRA-102) is cultured in the laboratory as per standard protocols [Moll K., Ljungström I., Perlmann H., Scherf A., and Wahlgren M., (Editors). Methods in Malaria Research. Joint publication by Malaria Research and Reference Reagent Resource Center (MR4), ATCC, USA and BioMalPar, EU. 2008]. Briefly, P. falciparum is cultured using 2% hematocrit washed RBCs, separated from freshly collected human blood, in RPMI media containing glutamine, sodium bicarbonate and antibiotics. Parasites are routinely synchronized using 5% sorbitol treatment. Anti-malarial screens are carried out in two stages: 1) a primary screen at a fixed concentration of 10 μM to find out % inhibition of growth; and 2) a dose assay for finding out the IC50 for hits identified from the primary screen. Assays are setup as follows. 200 μls of the diluted parasite culture (2% parasitemia and 2% hematocrit; at late ring stage), is added to each well in a 96 well plate pre-seeded with the compound of interest at the required concentration of 10 μM. The master stocks and dilutions of the compounds are prepared in cell culture grade DMSO. NOTE: DMSO only treatment control is done and the results are used for normalizing the data obtained from compound treatment. All compounds are plated in triplicates. Each 96 well plate also includes negative controls (compound untreated culture) and positive controls (standard anti-malarial treated culture). Standard anti-malarials used are chloroquine, artemisinine and atovaquone, each at 1 μM concentration. After plating, the culture is incubated in standard growth condition for 60 hours, after which the cultures are processed for testing the effect of compounds on parasite growth using SybrGreen staining and fluorescence measurements at […] emmission following excitation at 498 nm. Since only parasites have DNA (as RBCs are devoid of nucleus), the SybrGreen signal is a direct indictor of parasitemia in respective samples. Results are used to quantifying relative parasite growth (or conversely % inhibition of growth) in untreated, standard anti-malarial treated and test molecule treated P. falciparum cultures. […] Data from the preliminary screen (@ 10 μM only) along with data from the dose response experiment and IC50 values for the selected molecules are tabulated in Table-2.

The mark [2] stands for this setting: Toxoplasma gondii, 48 h; primary screen at 10 μM, TgLuc+ tachyzoites in HFF cells, 2 days incubation.
Setting [3] is: Plasmodium falciparum, 3D7, 60 h.
The mark [4] stands for this setting: Plasmodium falciparum, 3D7, read-out: IC50(P. falciparum, μM), dose response, dilution series 10 μM to 1 nM, 3D7.
Setting [5] is: primary screen at 10 μM, TgLuc+ tachyzoites in HFF cells, 2 days incubation.
Setting [6] is: dose response, dilution series 10 μM to 1 nM, 3D7, read-out: IC50(P. falciparum).
Setting [7] is: primary screen at 10 μM, 3D7, 60 hours incubation.
The mark [8] stands for this setting: Plasmodium falciparum, 3D7, dose response, dilution series 10 μM to 1 nM, 3D7, read-out: IC50(P. falciparum).
Setting [9] is: Plasmodium falciparum, primary screen at 10 μM, 3D7, 60 hours incubation.

As to `C=CC[N+]1(C)CC[Si](c2ccccc2)(c2ccccc2)CC1` [NDS 101039, 1-allyl-1-methyl-4,4-diphenyl-1,4-azasilinan-1-ium bromide], the inhibition (usually the change of the read-out against control, counted positive when it falls) at 10 µM with T. gondii (setting [2]) stood at 17%; in test [1] (setting [3]), 76.2%. In addition, in test [1] (setting [4]), the half-maximal inhibitory concentration (IC50) (commonly the concentration at which inhibition is half-maximal) was determined as 7.11 µM.
Regarding “1,1-dibenzyl-4,4-diphenyl-1λ4,4-azasilinan-2-ylium bromide [NDS 100953]”, the “% inhibition (T. gondii)” value with T. gondii (setting [5]) amounted to 39%. Also, the half-maximal inhibitory concentration (IC50) in test [1] (setting [6]) worked out at 1.69 µM. In addition, the “% inhibition (P. falciparum)” value in test [1] (setting [7]) is given as 94.96%.
On to “1-benzyl-1-ethyl-4,4-diphenyl-1λ4,4-azasilinan-2-ylium iodide [NDS 100952]”, for which the IC50 turned out to be 1240 nM with T. gondii (dose response, dilution series 10 μM to 1 nM; read-out: IC50 (T gondii)) and 0.33 µM in test [1] (setting [6]). The “% inhibition (T. gondii)” value in the test with T. gondii (setting [5]) is given as 72.06%. For the same molecule, in test [1] (setting [7]), the “% inhibition (P. falciparum)” value was determined as 104.01%.
For `C[N+]1(Cc2ccccc2)CC[Si](c2ccccc2)(c2ccccc2)CC1` [NDS 100861], the results for the inhibition at 10 µM (in the test with T. gondii (setting [2]); in test [1] (setting [9])) were 36% and 115%, respectively. The IC50 in test [1] (setting [8]) turned out to be 1.64 µM; in test [1] (setting [6]) it was 2.39 µM.
`c1ccc([Si]2(c3ccccc3)CC[N+]3(CCCCC3)CC2)cc1` [NDS 101017]: the inhibition at 10 µM with T. gondii (setting [2]) came out at 0%; in test [1] (setting [9]), 87.1%. Further, the IC50 in test [1] (setting [6]) is 2.07 µM and 4.98 µM.
In the case of `C[N+]1(C)CC[Si](c2ccccc2)(c2ccccc2)CC1` [NDS 101044, 1,1-dimethyl-4,4-diphenyl-1,4-azasilinan-1-ium iodide], the inhibition at 10 µM with T. gondii (setting [2]) was determined as 0%; in test [1] (setting [9]), 63.5%. In addition, in test [1] (setting [8]), the IC50 is 2.46 µM.
On to `c1ccc(CN2CC[Si](c3ccccc3)(c3ccccc3)CC2)cc1` [NDS 100860], for which the inhibition at 10 µM in the test on T. gondii (setting [2]) turned out to be 99.4%; in test [1] (setting [9]) it was 112%. In addition, the IC50 was 5030 nM and 2090 nM in the test with T. gondii (read-out: IC50 (T gondii); dose response, dilution series 10 μM to 1 nM); 1.75 µM in test [1] (setting [8]); 2.3 µM in test [1] (setting [6]).
Consider `CC(C)=CC[N+]1(CC=C(C)C)CC[Si](c2ccccc2)(c2ccccc2)CC1` [NDS 101015, 1,1-bis(3-methylbut-2-en-1-yl)-4,4-diphenyl-1,4-azasilinan-1-ium bromide], for which the results for the inhibition at 10 µM (in the test on T. gondii (setting [2]); in test [1] (setting [3])) were 20% and 103%, respectively. Moreover, the IC50 in test [1] (setting [4]) is 0.48 µM; in test [1] (read-out: IC50(P. falciparum), dose response, dilution series 10 μM to 1 nM, 3D7), 0.29 µM.
